Where a chain is given by its changes, count along the chain named. Where two headings read alike, the source gives them in different places. Blank lines part the entries; values can stand above or below the compound they belong to.
Columns and labels:
[1] = target: T1, adult human liver flavin-containing monooxygenase (form 3) (Homo sapiens, UniProt P31513, E158K); experiment: N- and S-oxygenation by cDNA-expressed HLFMO 3 (solubilized protein from E. coli transformed with pTrcHLFMO 3), HPLC; details: for Vmax, Expressed HLFMO / Km: N- or S-oxide formation, for the 4-bromophenyl-1,3-oxathiolanes formation of the trans S-oxide; for Km: read-out: Km, Expressed HLFMO
T1 sequence (P31513 1-532 E158K): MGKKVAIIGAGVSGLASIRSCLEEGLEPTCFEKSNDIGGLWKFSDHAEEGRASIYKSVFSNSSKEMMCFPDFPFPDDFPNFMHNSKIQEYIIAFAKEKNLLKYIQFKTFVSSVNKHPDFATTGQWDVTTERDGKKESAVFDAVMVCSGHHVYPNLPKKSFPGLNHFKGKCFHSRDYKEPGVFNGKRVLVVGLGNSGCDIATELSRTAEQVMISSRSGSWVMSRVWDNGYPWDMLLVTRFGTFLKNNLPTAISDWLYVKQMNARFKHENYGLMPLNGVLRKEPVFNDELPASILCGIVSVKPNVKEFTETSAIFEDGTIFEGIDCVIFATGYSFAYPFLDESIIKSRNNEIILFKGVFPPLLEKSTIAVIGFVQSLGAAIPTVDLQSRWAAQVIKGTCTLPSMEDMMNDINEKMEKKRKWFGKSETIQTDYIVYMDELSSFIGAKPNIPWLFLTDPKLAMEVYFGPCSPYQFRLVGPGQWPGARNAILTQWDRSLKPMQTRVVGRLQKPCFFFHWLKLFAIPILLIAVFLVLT
Description: (§1) In all cases examined, product formation was directly determined by HPLC analysis of organic extracts.
Competent NM522 Escherichia coli cells were transformed with the pTrc HLFMO 3 plasmid. […] After inoculation with a fresh overnight culture of NM522 containing pTrcHLFMO 3, the culture was grown at 37° C. until Abs600 was approximately 0.5 absorbance units. Finally, IPTG (0.8 mM) was added to the culture to induce expression of protein and the culture was left to grow overnight at 37° C.
The bacterial pellet was resuspended in 5 volumes of 50 mM potassium phosphate buffer (pH 8.4) containing 1% Triton X-100, 0.1% L-, α-phosphatidylcholine (L-α-lecithin) from egg yolk, 500 μM PMSF, and 1 mM EDTA. The mixture was sonicated and then centrifuged to remove cellular debris. As a control, bacterial lysate extracts from IPTG-induced pTrc99A-transformed NM522 cells (i.e., pTrc99A without the HLFMO 3 cDNA insert) were prepared under the same conditions.
(§2) Human liver samples were obtained from the Department of Surgery (UCSF) and with a protocol from the Medical College of Wisconsin (S. Wrighton).
(§3) A typical incubation mixture (final volume 0.25 ml) contained hepatic microsomes (0.4 mg of protein) or bacterial lysate (2.3 mg of protein), NADP^+ (0.5 mM), glucose-6-phosphate (2.0 mM), glucose-6-phosphate dehydrogenase (1 IU), DETAPAC (0.8 mM) and potassium phosphate buffer (50 mM, pH 8.4). Reactions were initiated by the addition of substrate and terminated at designated times by the addition of three volumes of cold dichloromethane, mixed thoroughly and centrifuged to separate the aqueous and organic fractions. N- and S-oxide metabolic products in the resulting organic extracts were separated and quantified by HPLC. […] Thiobenzamide and thiobenzamide S-oxide were quantified with this same, HPLC system employing a mobile phase of methanol/acetonitrile/60% perchloric acid (20:80:0.016, v/v) which gave retention volumes of 2.7 and 7.0 ml, respectively. […] The major metabolites formed in the incubations were also subjected to mass spectral analysis after extraction of isolated HPLC fractions.
(§4) RPLC of the S-oxide diastereomers with a Chiracel OT chiral analytical column (25 cm×0.15 cm inner diameter, Daicel Chemical Co., New York, N.Y.) was accomplished with a Beckman system, Kratos UV detector (240 nm) and a Hewlett Packard Integrator. […] Quantification was accomplished by comparing integrated HPLC peak areas after taking into account the difference in the extinction coefficients at 240 nm. Likewise, the cis and trans S-oxide diasteromers of (+)- and (−)-2-methyl-1,-benzodithiole were separated with a Chiracel OT chiral analytical column.

Human Liver Microsomes = experiment: in vitro
Description: as §1, §2, §3, §4

lys158-HFMO3-MBP = target: T2, lys158-HFMO3-MBP (Homo sapiens, UniProt P31513, E158K); experiment: Substrate oxygenation by lys158-HFMO3-MBP fusion protein, HPLC; details: human, 15 min, 200 µM, pH 9
T2 sequence (P31513 2-532 E158K): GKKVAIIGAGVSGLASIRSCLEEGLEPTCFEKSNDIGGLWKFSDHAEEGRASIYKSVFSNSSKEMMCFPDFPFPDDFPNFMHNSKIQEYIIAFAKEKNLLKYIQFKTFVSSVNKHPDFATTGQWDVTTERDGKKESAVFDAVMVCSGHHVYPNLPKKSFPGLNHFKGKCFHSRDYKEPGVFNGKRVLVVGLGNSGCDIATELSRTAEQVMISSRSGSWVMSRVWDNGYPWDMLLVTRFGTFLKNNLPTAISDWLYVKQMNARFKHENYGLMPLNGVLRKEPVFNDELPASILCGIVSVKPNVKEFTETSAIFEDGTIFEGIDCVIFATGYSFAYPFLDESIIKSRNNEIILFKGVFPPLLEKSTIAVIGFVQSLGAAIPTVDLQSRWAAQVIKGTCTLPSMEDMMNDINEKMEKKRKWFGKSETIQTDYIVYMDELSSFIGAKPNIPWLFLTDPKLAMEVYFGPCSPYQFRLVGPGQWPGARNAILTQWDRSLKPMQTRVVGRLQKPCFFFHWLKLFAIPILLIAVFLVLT
Description: (§5) For HFMO3-MBP assay, all HFMO3-MBP incubations were done as follows: Into a test tube was added DETAPAC (1.2 mM, final concentration for a 250 μl reaction) followed by the addition of 60 μl NADPH generating system (0.4 mM NADP, 0.4 mM glucose-6-phosphate, and 20 μl of a 50 units mI^−1 glucose-6-phosphate dehydrogenase). The tube was chilled on ice and buffer and enzyme were added as described below for individual experiments to give a volume of 240 μl. The incubation was initiated by the addition of 5-DTP (10 μl of 5 mM) and placed in a shaking water bath at 37° C. for 10 min (unless specified otherwise). The incubation was stopped by the addition of 1.0 ml of ice-cold CH2Cl2. Following the addition of sodium carbonate (approx. 20 mg), the culture tube was vortexed, centrifuged (2000×g, 10 min), and the organic layer was removed and transferred to a 1.5 ml microfuge tube. The organic solvent was evaporated under a stream of Ar(g) to dryness and the residue was taken up in MeOH (300 μl) for determination HPLC analysis.
(§6) Data was analyzed with a Hitachi D-2500 integrator.
(§7) MTS-oxygenation assays were carried out under the same buffer, temperature, time and volume conditions, as for the N-oxygenation assays. The reactions were initiated upon addition of 10 μl of a 5 mM solution of MTS. The reaction was quenched with the addition of 700 μl of 80% CH3CN:20% hexane then 20 mg NaCl(s) and vortexed vigorously for 10 sec. The quenched reactions were then centrifuged briefly to separate the phases. The organic layer, containing product and substrate, was removed and used directly for HPLC analysis.
(§8) All other instruments used were the same as above for the N-oxygenation reactions. Conditions for elution were 50% CH3CN/H2O (v:v) with a flow rate gradient as follows: 1.5 ml min^−1 from 0 to 4 min., 1.5-2.5 ml min^−1 from 4 to 5 min, 2.5 ml min^−1 from 5 to 15 min.
Trimethylamine is commonly ingested in foodstuffs or it is available in the diet of humans from choline and other sources. Trimethylamine (TMA) is exclusively eliminated in humans by metabolism to trimethylamine N-oxide (TMANO). […] Thus, urinary TMANO formation provides a simple, reliable and direct assay of FMO3 activity in adult humans. Analysis of TMA to TMANO ratios provides a direct means of phenotyping adult humans for FMO3 activity. Phenotyping FMO3 activity in humans would provide a simple means of evaluating the relationship between the presence of FMO3 and various disease conditions. […]

glu158-HFMO3-MBP = target: T3, glu158-HFMO3-MBP (Homo sapiens, UniProt P31513); experiment: Substrate oxygenation by glu158-HFMO3-MBP fusion protein, HPLC; details: human, 15 min, 200 µM, pH 9
T3 sequence (P31513 2-532): T2 sequence (P31513 2-532 E158K) with K157E
Description: as §5, §6, §7, §8
Trimethylamine is commonly ingested in foodstuffs or it is available in the diet of humans from choline and other sources. Trimethylamine (TMA) is exclusively eliminated in humans by metabolism to trimethylamine N-oxide (TMANO). […]

pH of maximum S-oxygenase activity ([1]; in the presence of microsomes and expressed HLFMO 3): ~8.5
Compound: 4-bromophenyl-1,3-oxathiolane

S-oxide product cis (+)-(1R,2S), % Diastereomer (Human Liver Microsomes; human, 0.5 mM, pH 8.4): 28.2%
S-oxide product cis (+)-(1R,2S), amount formed (Human Liver Microsomes; human, 0.5 mM, pH 8.4): 176 ± 34 pmol/min/mg of protein
S-oxide product cis (-)-(1S,2R), % Diastereomer (Human Liver Microsomes; human, 0.5 mM, pH 8.4): 12.3%
S-oxide product cis (-)-(1S,2R), amount formed (Human Liver Microsomes; human, 0.5 mM, pH 8.4): 77 ± 27 pmol/min/mg of protein
S-oxide product trans (+)-(1R,2R), % Diastereomer (Human Liver Microsomes; human, 0.5 mM, pH 8.4): 59.5%
S-oxide product trans (+)-(1R,2R), amount formed (Human Liver Microsomes; human, 0.5 mM, pH 8.4): 372 ± 35 pmol/min/mg of protein
S-oxide product cis (+)-(1R,2S), % Diastereomer ([1]; human, 0.5 mM, pH 8.4): 48.6%
S-oxide product cis (+)-(1R,2S), amount formed ([1]; human, 0.5 mM, pH 8.4): 54 ± 22 pmol/min/mg of protein
S-oxide product cis (-)-(1S,2R), % Diastereomer ([1]; human, 0.5 mM, pH 8.4): 19.8%
S-oxide product cis (-)-(1S,2R), amount formed ([1]; human, 0.5 mM, pH 8.4): 22 ± 2 pmol/min/mg of protein
S-oxide product trans (+)-(1R,2R), % Diastereomer ([1]; human, 0.5 mM, pH 8.4): 31.5%
S-oxide product trans (+)-(1R,2R), amount formed ([1]; human, 0.5 mM, pH 8.4): 35 ± 27 pmol/min/mg of protein
Compound: CC1Sc2ccccc2S1 [2-Methyl-1,3-Benzodithiole, 2-Methyl-1,3-benzodithiole]

relative activity towards the sulfide, MTS vs. 5-DTP activity (lys158-HFMO3-MBP): 4.9 fold
relative activity towards the sulfide, MTS vs. 5-DTP activity (glu158-HFMO3-MBP): 20 fold
Compound: CSc1ccc(C)cc1 [MTS, methyl p-tolyl sulfide]

Km (Human Liver Microsomes): 50 µM
Vmax, Human Liver Microsomes (Human Liver Microsomes): 2.87 nmol/min/mg of protein
cis S-oxide formation rate, Human Liver Microsomes (Human Liver Microsomes): (5.3 ± 0.9) nmol/min/mg of protein
cis S-oxide, % of S-oxide product, Human Liver Microsomes (Human Liver Microsomes): 40.4%
trans S-oxide formation rate, Human Liver Microsomes (Human Liver Microsomes): 7.8 ± 1.7 nmol/min/mg of protein
trans S-oxide, % of S-oxide product, Human Liver Microsomes (Human Liver Microsomes): 59.5%
cis S-oxide, % of S-oxide product, Expressed HLFMO [1]: 38.5%
substrate activity for human liver microsomes and expressed HLFMO 3, in words [1]: excellent substrates
trans S-oxide formation rate, Expressed HLFMO [1]: 0.8 ± 0.2 nmol/min/mg of protein
trans S-oxide, % of S-oxide product, Expressed HLFMO [1]: 61.4%
Vmax, Expressed HLFMO [1]: 0.180 nmol/min/mg of protein
Km [1]: 142 µM
Compound: (+)-4-bromophenyl-1,3-oxathiolane

The next lines start with the compound.

Compound: CN(C)CCCN1c2ccccc2Sc2ccc(Cl)cc21 [Chlorpromazine, chlorpromazine]
N-oxide formation, Human Liver Microsomes (Human Liver Microsomes; human, 0.1 mM, pH 8.4): 58.9 ± 7.4 pmol/min/mg of protein
S-oxide formation, Human Liver Microsomes (Human Liver Microsomes; human, 0.1 mM, pH 8.4): 29.3 ± 3.7 pmol/min/mg of protein
substrate activity for human liver microsomes and expressed HLFMO 3, in words [1]: detectable
N-oxide formation, Expressed HFLMO ([1]; human, 0.1 mM, pH 8.4): 10.2 ± 1.2 pmol/min/mg of protein

Compound: CN(C)CCCCCCN1c2ccccc2Sc2ccc(C(F)(F)F)cc21 [Compound 6]
substrate activity for human liver microsomes and expressed HLFMO 3, in words ([1]; human liver microsomes and solubilized protein from E. coli transformed with pTrcHLFMO 3): better substrates
pH-optimum for tertiary amine N-oxygenation ([1]; microsomal protein and expressed HLFMO 3 gave virtually identical pH-rate profiles): approximately 10
midpoint of the pH-rate profile of N-oxygenation ([1]; microsomes and expressed HLFMO 3): ~9.5

Compound: (−)-4-bromophenyl-1,3-oxathiolane [(-)-4-Bromophenyl-1,3-oxathiolane]
Km (Human Liver Microsomes): 166 µM
Vmax, Human Liver Microsomes (Human Liver Microsomes): 5.2 nmol/min/mg of protein
trans S-oxide formation rate, Human Liver Microsomes (Human Liver Microsomes): 2.4 ± 0.9 nmol/min/mg of protein
trans S-oxide, % of S-oxide product, Human Liver Microsomes (Human Liver Microsomes): 100%
substrate activity for human liver microsomes and expressed HLFMO 3, in words [1]: excellent substrates
trans S-oxide formation rate, Expressed HLFMO [1]: 0.7 ± 0.1 nmol/min/mg of protein
trans S-oxide, % of S-oxide product, Expressed HLFMO [1]: 100%
Vmax, Expressed HLFMO [1]: 2.94 nmol/min/mg of protein
Km [1]: 311 µM
